Measured values from patent US20200199127A1, “(HETERO)ARYLALKYLAMINO-PYRAZOLOPYRIDAZINE DERIVATIVES HAVING MULTIMODAL ACTIVITY AGAINST PAIN” (priority 2017, published 2020).

Experiments:
[1] = target: Human norepinephrine transporter (NET) (Homo sapiens, UniProt P23975); assay: Binding assay to human norepinephrine transporter (NET), [3H]-Nisoxetin; conditions: human NET enriched membranes, 5 nM [3H]-Nisoxetin; Ki as class symbol
Protocol: Binding Assay to Human Norepinephrine Transporter (NET).
Human norepinephrine transporter (NET) enriched membranes (5 μg) were incubated with 5 nM of radiolabeled [3H]-Nisoxetin in assay buffer containing 50 mM Tris-HCl, 120 mM NaCl, 5 mM KCl, pH 7.4.
NSB (non specific binding) was measured by adding 10 μM of desipramine. The binding of the test compound was measured at five different concentrations.. After 60 min incubation at 4° C., binding reaction was terminated by filtering through Multiscreen GF/C (Millipore) presoaked in 0.5% polyethyleneimine in Vacuum Manifold Station, followed by 3 washes with ice-cold filtration buffer containing 50 mM Tris-HCl, 0.9% NaCl, pH 7.4.
Filter plates were dried at 60° C. for 1 hour and 30 μl of scintillation cocktail were added to each well before radioactivity reading.

[2] = target: Human α2δ-1 subunit of Cav2.2 calcium channel (Homo sapiens, UniProt P54289); assay: Human α2δ-1 subunit of Cav2.2 calcium channel assay, [3H]-Gabapentin binding; conditions: human α2δ-1 enriched membranes, 15 nM [3H]-Gabapentin; Ki as class symbol
Sequence of Human α2δ-1 subunit of Cav2.2 calcium channel (P54289 25-1103): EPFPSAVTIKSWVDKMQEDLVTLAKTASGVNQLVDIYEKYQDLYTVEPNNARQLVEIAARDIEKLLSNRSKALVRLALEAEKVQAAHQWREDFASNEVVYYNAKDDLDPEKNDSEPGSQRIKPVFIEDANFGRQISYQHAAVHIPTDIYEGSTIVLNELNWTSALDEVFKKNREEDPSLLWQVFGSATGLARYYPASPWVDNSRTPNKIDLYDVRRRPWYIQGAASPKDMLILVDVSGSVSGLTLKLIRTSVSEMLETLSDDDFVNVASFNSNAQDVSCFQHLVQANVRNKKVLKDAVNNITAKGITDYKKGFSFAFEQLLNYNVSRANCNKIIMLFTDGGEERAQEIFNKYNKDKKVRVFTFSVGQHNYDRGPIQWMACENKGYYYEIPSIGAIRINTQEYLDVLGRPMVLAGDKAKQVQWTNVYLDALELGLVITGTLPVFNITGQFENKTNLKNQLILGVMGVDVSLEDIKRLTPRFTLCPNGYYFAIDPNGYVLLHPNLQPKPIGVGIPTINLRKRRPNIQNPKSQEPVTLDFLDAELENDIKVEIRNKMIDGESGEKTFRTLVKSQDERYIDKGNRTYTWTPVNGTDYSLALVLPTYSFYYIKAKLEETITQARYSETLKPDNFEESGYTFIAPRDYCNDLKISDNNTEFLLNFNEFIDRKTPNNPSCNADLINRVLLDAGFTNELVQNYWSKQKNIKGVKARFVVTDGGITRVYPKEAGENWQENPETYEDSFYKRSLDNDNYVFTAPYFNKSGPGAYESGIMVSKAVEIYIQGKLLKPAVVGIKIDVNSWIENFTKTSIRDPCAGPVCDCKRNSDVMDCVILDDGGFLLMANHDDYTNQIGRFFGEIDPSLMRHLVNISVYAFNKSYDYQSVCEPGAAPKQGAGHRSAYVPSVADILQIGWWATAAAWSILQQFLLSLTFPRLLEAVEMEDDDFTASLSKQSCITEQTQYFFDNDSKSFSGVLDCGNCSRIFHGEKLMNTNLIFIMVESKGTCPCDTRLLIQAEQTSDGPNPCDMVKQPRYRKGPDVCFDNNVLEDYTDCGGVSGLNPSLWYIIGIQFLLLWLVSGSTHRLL
Protocol: Human α2δ-1 Subunit of Cav2.2 Calcium Channel Assay
Human α2δ-1 enriched membranes (2.5 μg) were incubated with 15 nM of radiolabeled [3H]-Gabapentin in assay buffer containing Hepes-KOH 10 mM, pH 7.4. NSB (non specific binding) was measured by adding 10 μM pregabalin. The binding of the test compound was measured at five different concentrations. After 60 min incubation at 27° C., binding reaction was terminated by filtering through Multiscreen GF/C (Millipore) presoaked in 0.5% polyethyleneimine in Vacuum Manifold Station, followed by 3 washes with ice-cold filtration buffer containing 50 mM Tris-HCl, pH 7.4. Filter plates were dried at 60° C. for 1 hour and 30 μl of scintillation cocktail were added to each well before radioactivity reading. Readings were performed in a Trilux 1450 Microbeta radioactive counter (Perkin Elmer).

Sequence of Human norepinephrine transporter (NET) (P23975 whole entry): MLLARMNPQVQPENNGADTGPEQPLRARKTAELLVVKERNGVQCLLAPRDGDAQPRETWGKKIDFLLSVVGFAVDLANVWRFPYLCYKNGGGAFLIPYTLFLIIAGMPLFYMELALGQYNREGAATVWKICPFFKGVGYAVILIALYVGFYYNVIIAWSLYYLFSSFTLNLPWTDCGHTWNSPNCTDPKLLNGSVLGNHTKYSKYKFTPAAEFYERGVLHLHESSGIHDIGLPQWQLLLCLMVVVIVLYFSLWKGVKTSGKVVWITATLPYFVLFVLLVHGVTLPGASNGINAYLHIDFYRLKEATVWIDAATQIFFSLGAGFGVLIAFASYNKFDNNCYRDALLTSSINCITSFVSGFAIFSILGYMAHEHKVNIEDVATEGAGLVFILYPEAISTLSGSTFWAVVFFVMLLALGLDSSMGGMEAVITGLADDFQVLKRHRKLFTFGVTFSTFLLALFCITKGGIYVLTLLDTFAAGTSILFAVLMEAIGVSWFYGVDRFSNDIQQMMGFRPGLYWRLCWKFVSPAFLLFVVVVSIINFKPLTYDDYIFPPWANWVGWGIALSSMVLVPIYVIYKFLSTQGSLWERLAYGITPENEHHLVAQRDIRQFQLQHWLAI

SMILES	Ki [1] [nM]	Ki [2] [nM]
CCOc1ccc(-n2nc3c(N(C)CCc4ccccn4)nnc(C)c3c2C)c(F)c1 [Example 16, 2-(4-ethoxy-2-fluorophenyl)-N,3,4-trimethyl-N-(2-(pyridin-2-yl)ethyl)-2H-pyrazolo[3,4-d]pyridazin-7-amine]	> 1000	100 to 500
CCOc1ccc(-n2nc3c(NCCC4(c5ccccn5)CCOC5(CCCC5)C4)nnc(C)c3c2C)c(F)c1 (stereo not drawn) [Example 59, 2-(4-ethoxy-2-fluorophenyl)-3,4-dimethyl-N-(2-(9-(pyridin-2-yl)-6-oxaspiro[4.5]decan-9-yl)ethyl)-2H-pyrazolo[3,4-d]pyridazin-7-amine]	> 1000	≥ 5000
CCOc1ccc(-n2nc3c(N(C)CCn4cnc5ccccc54)nnc(C)c3c2C)c(F)c1 [Example 58, N-(2-(1H-Benzo[d]imidazol-1-yl)ethyl)-2-(4-ethoxy-2-fluorophenyl)-N,3,4-trimethyl-2H-pyrazolo[3,4-d]pyridazin-7-amine]	> 1000	500 to 5000
COc1ccc(-n2nc3c(N(C)Cc4ccccn4)nnc(C)c3c2C)cc1 [Example 48, 2-(4-methoxyphenyl)-N,3,4-trimethyl-N-(pyridin-2-ylmethyl)-2H-pyrazolo[3,4-d]pyridazin-7-amine]	> 1000	500 to 5000
COc1ccc(-n2nc3c(N(C)Cc4ccccn4)nnc(C)c3c2C)c(F)c1 [Example 45, 2-(2-fluoro-4-methoxyphenyl)-N,3,4-trimethyl-N-(pyridin-2-ylmethyl)-2H-pyrazolo[3,4-d]pyridazin-7-amine]	> 1000	≥ 5000
CCOc1ccc(-n2nc3c(N(C)Cc4ccccc4O)nnc(C)c3c2C)c(F)c1 [Example 23, 2-(((2-(4-ethoxy-2-fluorophenyl)-3,4-dimethyl-2H-pyrazolo[3,4-d]pyridazin-7-yl)(methyl)amino)methyl)phenol]	500 to 1000	100 to 500
CCOc1ccc(-n2nc3c(N(C)Cc4ccccn4)nnc(C)c3c2C)c(F)c1 [Example 9, 2-(4-ethoxy-2-fluorophenyl)-N,3,4-trimethyl-N-(pyridin-2-ylmethyl)-2H-pyrazolo[3,4-d]pyridazin-7-amine]	500 to 1000	100 to 500
CCOc1ccc(-n2nc3c(N(C)CCC(N)c4ccccc4)nnc(C)c3c2C)c(F)c1 (stereo not drawn) [Example 39, N1-(2-(4-ethoxy-2-fluorophenyl)-3,4-dimethyl-2H-pyrazolo[3,4-d]pyridazin-7-yl)-N1-methyl-3-phenylpropane-1,3-diamine]	500 to 1000	≥ 5000
CCOc1ccc(-n2nc3c(NCc4ncccc4C(F)(F)F)nnc(C)c3c2C)c(F)c1 [Example 20, 2-(4-ethoxy-2-fluorophenyl)-3,4-dimethyl-N-((3-(trifluoromethyl)pyridin-2-yl)methyl)-2H-pyrazolo[3,4-d]pyridazin-7-amine]	> 1000	100 to 500
CCOc1ccc(-n2nc3c(N(CCO)Cc4ccccn4)nnc(C)c3c2C)c(F)c1 [Example 56, 2-((2-(4-ethoxy-2-fluorophenyl)-3,4-dimethyl-2H-pyrazolo[3,4-d]pyridazin-7-yl)(pyridin-2-ylmethyl)amino)ethanol]	500 to 1000	500 to 5000
CCOc1ccc(-n2nc3c(N(C)Cc4ncccc4F)nnc(C)c3c2C)c(F)c1 [Example 33, 2-(4-ethoxy-2-fluorophenyl)-N-((3-fluoropyridin-2-yl)methyl)-N,3,4-trimethyl-2H-pyrazolo[3,4-d]pyridazin-7-amine]	100 to 500	100 to 500

More lines, now with the values ahead:

Ki [1] [nM]	Ki [2] [nM]	SMILES
> 1000	≥ 5000	CCOc1ccc(-n2nc3c(N(CCO)Cc4cccnc4)nnc(C)c3c2C)c(F)c1 [Example 57, 2-((2-(4-ethoxy-2-fluorophenyl)-3,4-dimethyl-2H-pyrazolo[3,4-d]pyridazin-7-yl)(pyridin-3-ylmethyl)amino)ethanol]
500 to 1000	100 to 500	CCOc1ccc(-n2nc3c(N(C)Cc4cccnc4)nnc(C)c3c2C)c(F)c1 [Example 10, 2-(4-ethoxy-2-fluorophenyl)-N,3,4-trimethyl-N-(pyridin-3-ylmethyl)-2H-pyrazolo[3,4-d]pyridazin-7-amine]
> 1000	100 to 500	CCOc1ccc(-n2nc3c(N(C)Cc4cscn4)nnc(C)c3c2C)c(F)c1 [Example 29, 2-(4-ethoxy-2-fluorophenyl)-N,3,4-trimethyl-N-(thiazol-4-ylmethyl)-2H-pyrazolo[3,4-d]pyridazin-7-amine]
> 1000	100 to 500	CCOc1ccc(-n2nc3c(NCc4ccccc4CO)nnc(C)c3c2C)c(F)c1 [Example 37, (2-(((2-(4-ethoxy-2-fluorophenyl)-3,4-dimethyl-2H-pyrazolo[3,4-d]pyridazin-7-yl)amino)methyl)phenyl)methanol]
500 to 1000	≥ 5000	CCOc1ccc(-n2nc3c(N(C)CCCc4ccccc4O)nnc(C)c3c2C)c(F)c1 [Example 21, 2-(3-((2-(4-ethoxy-2-fluorophenyl)-3,4-dimethyl-2H-pyrazolo[3,4-d]pyridazin-7-yl)(methyl)amino)propyl)phenol]
> 1000	100 to 500	CCOc1ccc(-n2nc3c(N(C)CC(O)c4ccccc4)nnc(C)c3c2C)c(F)c1 (stereo not drawn) [Example 5, 2-((2-(4-ethoxy-2-fluorophenyl)-3,4-dimethyl-2H-pyrazolo[3,4-d]pyridazin-7-yl)(methyl)amino)-1-phenylethanol]
> 1000	100 to 500	CCOc1ccc(-n2nc3c(N(C)Cc4ccncn4)nnc(C)c3c2C)c(F)c1 [Example 36, 2-(4-ethoxy-2-fluorophenyl)-N,3,4-trimethyl-N-(pyrimidin-4-ylmethyl)-2H-pyrazolo[3,4-d]pyridazin-7-amine]
100 to 500	500 to 5000	CCOc1ccc(-n2nc3c(N(CC)Cc4ccccn4)nnc(C)c3c2C)c(F)c1 [Example 40, 2-(4-ethoxy-2-fluorophenyl)-N-ethyl-3,4-dimethyl-N-(pyridin-2-ylmethyl)-2H-pyrazolo[3,4-d]pyridazin-7-amine]
> 1000	500 to 5000	CCOc1ccc(-n2nc3c(N(C)Cc4ncc[nH]4)nnc(C)c3c2C)c(F)c1 [Example 25, N-((1H-imidazol-2-yl)methyl)-2-(4-ethoxy-2-fluorophenyl)-N,3,4-trimethyl-2H-pyrazolo[3,4-d]pyridazin-7-amine]
100 to 500	100 to 500	CCOc1ccc(-n2nc3c(N(C)CCCc4ccccc4)nnc(C)c3c2C)c(F)c1 [Example 4, 2-(4-ethoxy-2-fluorophenyl)-N,3,4-trimethyl-N-(3-phenylpropyl)-2H-pyrazolo[3,4-d]pyridazin-7-amine]
